Laboratory results as given in patent US7074789B2, “Kinase inhibitors” (Amgen Inc., priority 1999, dated 2006).

How the values were obtained:
Type in all cases: biochemical
Lck = biological target: T1, Lck (Homo sapiens, UniProt P06239); assay: Kinase inhibition assay (33P transfer), Lck; conditions: Table 3; read-out: Lck-1
T1 construct: Kinases are expressed as either kinase domains or full length constructs; made in house
How it was run: (§1)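 Kinase domain or full-length constructs, GST- or polyHis-tagged, expressed in E. coli or baculovirus-High Five cells, sometimes with regulatory polypeptides. Activity measured as 33PO4 transfer from ATP to plate-bound poly(Glu,Tyr) 4:1 or poly(Arg,Ser) 3:1; after incubation, plates washed with 0.5% phosphoric acid and counted by liquid scintillation.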

Zap-70 = biological target: T2, Zap-70 (Homo sapiens, UniProt P43403); assay: Kinase inhibition assay (33P transfer), Zap-70; conditions: Table 3; read-out: Zap-1
T2 construct: Kinases are expressed as either kinase domains or full length constructs; made in house
T2 sequence (P43403 1-619): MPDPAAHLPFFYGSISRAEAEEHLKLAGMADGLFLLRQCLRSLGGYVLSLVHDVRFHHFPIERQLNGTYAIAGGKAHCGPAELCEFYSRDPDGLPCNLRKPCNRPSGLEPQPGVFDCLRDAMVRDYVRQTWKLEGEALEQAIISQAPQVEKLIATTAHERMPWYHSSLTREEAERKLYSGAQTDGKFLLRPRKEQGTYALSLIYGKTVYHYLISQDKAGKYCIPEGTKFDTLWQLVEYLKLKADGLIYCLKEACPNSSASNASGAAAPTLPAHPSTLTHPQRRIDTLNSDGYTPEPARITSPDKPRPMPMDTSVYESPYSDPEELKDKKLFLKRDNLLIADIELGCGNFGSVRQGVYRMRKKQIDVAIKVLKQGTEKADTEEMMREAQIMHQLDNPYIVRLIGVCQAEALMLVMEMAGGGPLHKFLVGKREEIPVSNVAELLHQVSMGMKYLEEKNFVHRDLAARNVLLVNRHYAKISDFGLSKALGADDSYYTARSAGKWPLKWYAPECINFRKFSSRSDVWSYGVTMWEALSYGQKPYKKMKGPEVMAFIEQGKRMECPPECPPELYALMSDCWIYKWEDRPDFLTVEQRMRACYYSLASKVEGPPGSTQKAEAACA
How it was run: as §1

Itk = biological target: T3, Itk (Homo sapiens, UniProt Q08881); assay: Kinase inhibition assay (33P transfer), Itk; conditions: Table 3; read-out: Itk-1
T3 construct: Kinases are expressed as either kinase domains or full length constructs; made in house
T3 sequence (Q08881 1-620): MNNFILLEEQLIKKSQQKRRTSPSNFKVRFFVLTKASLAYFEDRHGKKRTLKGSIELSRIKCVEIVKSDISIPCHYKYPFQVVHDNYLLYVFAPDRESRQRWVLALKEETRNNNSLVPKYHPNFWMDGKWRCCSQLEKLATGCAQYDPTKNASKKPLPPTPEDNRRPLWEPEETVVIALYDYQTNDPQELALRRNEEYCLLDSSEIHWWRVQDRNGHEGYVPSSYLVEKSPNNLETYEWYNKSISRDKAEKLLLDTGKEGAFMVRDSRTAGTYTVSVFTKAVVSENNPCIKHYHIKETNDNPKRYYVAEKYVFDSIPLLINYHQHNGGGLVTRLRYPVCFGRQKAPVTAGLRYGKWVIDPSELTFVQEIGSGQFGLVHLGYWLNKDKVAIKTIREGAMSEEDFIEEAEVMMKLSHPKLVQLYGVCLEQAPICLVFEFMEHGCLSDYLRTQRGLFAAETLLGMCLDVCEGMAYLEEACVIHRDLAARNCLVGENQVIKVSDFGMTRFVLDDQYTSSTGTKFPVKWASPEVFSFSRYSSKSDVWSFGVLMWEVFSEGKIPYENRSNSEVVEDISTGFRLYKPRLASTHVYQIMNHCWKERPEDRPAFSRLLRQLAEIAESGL
How it was run: (§2)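 Read-out: scintillation counts of 33P moved from ATP onto synthetic peptide polymer coated on the well surface, after washing with 0.5% phosphoric acid. Enzymes were tagged (GST or polyHistidine) and came from bacterial or insect-cell expression. IC50 marks 50% loss of incorporated label.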

EGFR = biological target: T4, EGFR (Homo sapiens, UniProt P00533); assay: Kinase inhibition assay (33P transfer), EGFR; conditions: Table 2, kinase inhibition class; read-out: EGFR-1
T4 construct: Kinases are expressed as either kinase domains or full length constructs; made in house
How it was run: as §2

Kdr = biological target: T5, Kdr (Homo sapiens, UniProt P35968); assay: Kinase inhibition assay (33P transfer), Kdr; conditions: Table 3; read-out: KDR-1
T5 construct: Kinases are expressed as either kinase domains or full length constructs; made in house
How it was run: as §1

c-Met = biological target: T6, c-Met (Homo sapiens, UniProt P08581); assay: Kinase inhibition assay (33P transfer), c-Met; conditions: Table 2, kinase inhibition class; read-out: Met-1
T6 construct: Kinases are expressed as either kinase domains or full length constructs; made in house
How it was run: as §2

AKT = biological target: T7, AKT (Homo sapiens, UniProt Q9Y243); assay: Kinase inhibition assay (33P transfer), AKT; conditions: Table 2, kinase inhibition class; read-out: AKT3-1
T7 construct: Kinases are expressed as either kinase domains or full length constructs; made in house
How it was run: as §1

IGFR-1 = biological target: T8, IGFR-1 (Homo sapiens, UniProt P08069); assay: Kinase inhibition assay (33P transfer), IGFR-1; conditions: Table 2, kinase inhibition class
T8 construct: Kinases are expressed as either kinase domains or full length constructs; made in house

EPHB4 = biological target: T9, EPHB4 (Homo sapiens, UniProt P54760); assay: Kinase inhibition assay (33P transfer), EPHB4; conditions: read-out: EPHB4-1
T9 construct: Kinases are expressed as either kinase domains or full length constructs; made in house
T9 sequence (P54760 16-987): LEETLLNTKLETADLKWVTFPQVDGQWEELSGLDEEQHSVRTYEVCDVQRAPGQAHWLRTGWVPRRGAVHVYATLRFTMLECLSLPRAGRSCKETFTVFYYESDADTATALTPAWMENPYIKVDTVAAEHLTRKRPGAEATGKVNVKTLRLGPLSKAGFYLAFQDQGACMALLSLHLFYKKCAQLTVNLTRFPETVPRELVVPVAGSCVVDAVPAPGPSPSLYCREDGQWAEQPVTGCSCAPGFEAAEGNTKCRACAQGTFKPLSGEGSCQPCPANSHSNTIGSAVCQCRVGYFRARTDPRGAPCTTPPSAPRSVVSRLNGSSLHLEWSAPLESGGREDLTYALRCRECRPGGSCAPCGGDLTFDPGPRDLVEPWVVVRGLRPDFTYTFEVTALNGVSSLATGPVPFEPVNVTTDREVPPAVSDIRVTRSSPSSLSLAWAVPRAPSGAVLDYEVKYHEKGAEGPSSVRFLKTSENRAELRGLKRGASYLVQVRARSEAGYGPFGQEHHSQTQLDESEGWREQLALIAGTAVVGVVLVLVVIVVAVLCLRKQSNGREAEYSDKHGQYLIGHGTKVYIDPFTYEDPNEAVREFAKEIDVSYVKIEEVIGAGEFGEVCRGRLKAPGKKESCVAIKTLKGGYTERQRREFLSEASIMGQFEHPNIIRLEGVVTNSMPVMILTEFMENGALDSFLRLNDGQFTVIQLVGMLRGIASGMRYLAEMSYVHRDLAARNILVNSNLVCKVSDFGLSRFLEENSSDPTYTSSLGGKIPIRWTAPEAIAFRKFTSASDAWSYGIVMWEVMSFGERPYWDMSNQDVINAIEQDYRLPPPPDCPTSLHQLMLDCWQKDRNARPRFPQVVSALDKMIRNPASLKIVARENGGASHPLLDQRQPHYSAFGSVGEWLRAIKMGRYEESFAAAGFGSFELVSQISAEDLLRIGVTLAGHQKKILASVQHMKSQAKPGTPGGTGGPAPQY

ErbB4 = biological target: T10, ErbB4 (Homo sapiens, UniProt Q15303); assay: Kinase inhibition assay (33P transfer), ErbB4; conditions: read-out: ErbB4-1
T10 construct: Kinases are expressed as either kinase domains or full length constructs; made in house

Tek = biological target: T11, Tek (Homo sapiens, UniProt Q02763); assay: Kinase inhibition assay (33P transfer), Tek; conditions: read-out: Tek-1
T11 construct: Kinases are expressed as either kinase domains or full length constructs; made in house
How it was run: as §2

T1 sequence (P06239 whole entry, species assumed, the tested form may be a part): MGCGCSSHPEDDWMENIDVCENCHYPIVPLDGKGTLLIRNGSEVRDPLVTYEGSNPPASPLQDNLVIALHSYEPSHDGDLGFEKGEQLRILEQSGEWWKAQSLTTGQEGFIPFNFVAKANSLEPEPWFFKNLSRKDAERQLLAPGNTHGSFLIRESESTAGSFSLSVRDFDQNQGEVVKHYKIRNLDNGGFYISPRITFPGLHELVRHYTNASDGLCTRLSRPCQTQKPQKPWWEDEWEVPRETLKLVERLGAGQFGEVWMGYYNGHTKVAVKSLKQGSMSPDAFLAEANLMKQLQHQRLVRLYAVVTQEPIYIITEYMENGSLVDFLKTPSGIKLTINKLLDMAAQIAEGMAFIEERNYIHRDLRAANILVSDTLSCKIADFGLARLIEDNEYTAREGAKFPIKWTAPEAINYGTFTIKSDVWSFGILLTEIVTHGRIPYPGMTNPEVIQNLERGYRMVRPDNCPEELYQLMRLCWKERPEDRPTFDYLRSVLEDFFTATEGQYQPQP
T5 sequence (P35968 20-1356, species assumed): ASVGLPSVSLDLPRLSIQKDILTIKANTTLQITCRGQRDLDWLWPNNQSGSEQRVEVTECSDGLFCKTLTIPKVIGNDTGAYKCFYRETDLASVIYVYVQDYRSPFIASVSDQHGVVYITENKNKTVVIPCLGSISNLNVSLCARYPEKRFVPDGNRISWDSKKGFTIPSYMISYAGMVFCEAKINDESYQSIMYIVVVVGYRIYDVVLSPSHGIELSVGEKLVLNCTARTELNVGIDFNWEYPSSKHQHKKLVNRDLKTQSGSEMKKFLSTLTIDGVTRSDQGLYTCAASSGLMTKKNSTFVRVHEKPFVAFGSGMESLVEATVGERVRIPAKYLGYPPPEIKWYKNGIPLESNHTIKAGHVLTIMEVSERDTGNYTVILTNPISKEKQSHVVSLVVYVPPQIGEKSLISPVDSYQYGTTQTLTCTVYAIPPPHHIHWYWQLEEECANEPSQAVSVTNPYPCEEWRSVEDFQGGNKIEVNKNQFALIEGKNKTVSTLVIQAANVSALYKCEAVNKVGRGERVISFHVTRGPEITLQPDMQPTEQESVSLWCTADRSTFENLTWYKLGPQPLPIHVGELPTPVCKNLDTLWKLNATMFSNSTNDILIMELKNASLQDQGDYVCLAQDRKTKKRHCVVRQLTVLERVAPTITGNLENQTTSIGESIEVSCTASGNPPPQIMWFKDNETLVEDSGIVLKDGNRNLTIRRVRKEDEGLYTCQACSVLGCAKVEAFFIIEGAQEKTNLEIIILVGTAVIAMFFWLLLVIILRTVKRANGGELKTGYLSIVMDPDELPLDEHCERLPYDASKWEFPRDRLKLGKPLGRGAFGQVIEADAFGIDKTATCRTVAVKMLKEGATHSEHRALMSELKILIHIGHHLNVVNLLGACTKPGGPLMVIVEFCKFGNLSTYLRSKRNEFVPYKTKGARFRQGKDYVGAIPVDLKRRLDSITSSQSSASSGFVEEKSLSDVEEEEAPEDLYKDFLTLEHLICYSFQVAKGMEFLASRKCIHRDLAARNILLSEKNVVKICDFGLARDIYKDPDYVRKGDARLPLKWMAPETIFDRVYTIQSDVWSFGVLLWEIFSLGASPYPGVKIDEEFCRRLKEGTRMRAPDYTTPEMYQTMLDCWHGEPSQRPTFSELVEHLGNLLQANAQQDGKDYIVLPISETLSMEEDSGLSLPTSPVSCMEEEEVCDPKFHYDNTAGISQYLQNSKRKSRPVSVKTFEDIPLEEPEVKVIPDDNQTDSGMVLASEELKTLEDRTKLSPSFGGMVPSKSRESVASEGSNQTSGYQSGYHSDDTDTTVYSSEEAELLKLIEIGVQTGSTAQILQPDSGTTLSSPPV
T8 sequence (P08069 31-1367): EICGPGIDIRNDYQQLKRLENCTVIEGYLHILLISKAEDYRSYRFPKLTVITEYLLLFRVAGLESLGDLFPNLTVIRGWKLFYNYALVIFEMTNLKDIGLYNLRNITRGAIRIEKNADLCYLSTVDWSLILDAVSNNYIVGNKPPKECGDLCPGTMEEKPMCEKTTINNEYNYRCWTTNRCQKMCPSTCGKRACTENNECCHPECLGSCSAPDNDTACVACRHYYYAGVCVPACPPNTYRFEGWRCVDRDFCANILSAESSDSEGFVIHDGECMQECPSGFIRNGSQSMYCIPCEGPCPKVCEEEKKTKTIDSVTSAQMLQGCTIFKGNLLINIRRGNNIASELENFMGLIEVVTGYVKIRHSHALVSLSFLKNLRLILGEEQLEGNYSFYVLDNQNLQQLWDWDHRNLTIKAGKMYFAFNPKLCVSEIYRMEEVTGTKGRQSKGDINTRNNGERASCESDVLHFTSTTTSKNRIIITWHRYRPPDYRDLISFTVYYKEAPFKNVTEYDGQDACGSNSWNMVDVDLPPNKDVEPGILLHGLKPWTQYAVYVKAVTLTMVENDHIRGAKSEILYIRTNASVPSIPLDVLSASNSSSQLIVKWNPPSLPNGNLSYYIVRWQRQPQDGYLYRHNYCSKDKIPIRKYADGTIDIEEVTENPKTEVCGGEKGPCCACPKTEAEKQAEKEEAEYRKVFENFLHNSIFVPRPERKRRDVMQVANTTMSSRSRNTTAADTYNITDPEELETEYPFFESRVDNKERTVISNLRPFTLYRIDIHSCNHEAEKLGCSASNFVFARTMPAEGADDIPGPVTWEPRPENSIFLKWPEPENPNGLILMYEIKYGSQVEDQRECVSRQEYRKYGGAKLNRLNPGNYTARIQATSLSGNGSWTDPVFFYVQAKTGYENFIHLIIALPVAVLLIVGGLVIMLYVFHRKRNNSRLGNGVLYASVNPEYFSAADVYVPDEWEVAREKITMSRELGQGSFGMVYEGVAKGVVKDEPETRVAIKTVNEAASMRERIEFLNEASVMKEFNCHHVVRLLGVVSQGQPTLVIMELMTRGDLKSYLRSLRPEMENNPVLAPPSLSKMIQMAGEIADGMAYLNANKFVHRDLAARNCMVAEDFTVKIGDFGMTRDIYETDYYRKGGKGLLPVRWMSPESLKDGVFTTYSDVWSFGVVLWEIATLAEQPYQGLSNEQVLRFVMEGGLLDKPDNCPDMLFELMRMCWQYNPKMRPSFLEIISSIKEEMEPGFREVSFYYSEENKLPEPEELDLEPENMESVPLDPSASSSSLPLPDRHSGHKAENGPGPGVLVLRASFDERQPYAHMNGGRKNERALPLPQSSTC
T7 sequence (Q9Y243 whole entry, the tested form may be a part): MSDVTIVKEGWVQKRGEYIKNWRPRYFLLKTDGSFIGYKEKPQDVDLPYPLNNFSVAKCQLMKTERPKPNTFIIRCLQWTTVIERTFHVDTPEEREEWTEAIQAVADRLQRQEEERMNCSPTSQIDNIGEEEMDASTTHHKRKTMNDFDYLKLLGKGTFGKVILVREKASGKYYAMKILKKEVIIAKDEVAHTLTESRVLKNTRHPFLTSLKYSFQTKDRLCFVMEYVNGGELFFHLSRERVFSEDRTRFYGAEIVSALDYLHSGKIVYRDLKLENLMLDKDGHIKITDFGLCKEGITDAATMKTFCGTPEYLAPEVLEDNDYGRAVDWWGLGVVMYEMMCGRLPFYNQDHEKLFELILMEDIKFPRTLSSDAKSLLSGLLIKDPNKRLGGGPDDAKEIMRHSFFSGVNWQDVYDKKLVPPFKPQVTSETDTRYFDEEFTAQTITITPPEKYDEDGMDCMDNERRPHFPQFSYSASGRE
T11 sequence (Q02763 23-1124, species assumed): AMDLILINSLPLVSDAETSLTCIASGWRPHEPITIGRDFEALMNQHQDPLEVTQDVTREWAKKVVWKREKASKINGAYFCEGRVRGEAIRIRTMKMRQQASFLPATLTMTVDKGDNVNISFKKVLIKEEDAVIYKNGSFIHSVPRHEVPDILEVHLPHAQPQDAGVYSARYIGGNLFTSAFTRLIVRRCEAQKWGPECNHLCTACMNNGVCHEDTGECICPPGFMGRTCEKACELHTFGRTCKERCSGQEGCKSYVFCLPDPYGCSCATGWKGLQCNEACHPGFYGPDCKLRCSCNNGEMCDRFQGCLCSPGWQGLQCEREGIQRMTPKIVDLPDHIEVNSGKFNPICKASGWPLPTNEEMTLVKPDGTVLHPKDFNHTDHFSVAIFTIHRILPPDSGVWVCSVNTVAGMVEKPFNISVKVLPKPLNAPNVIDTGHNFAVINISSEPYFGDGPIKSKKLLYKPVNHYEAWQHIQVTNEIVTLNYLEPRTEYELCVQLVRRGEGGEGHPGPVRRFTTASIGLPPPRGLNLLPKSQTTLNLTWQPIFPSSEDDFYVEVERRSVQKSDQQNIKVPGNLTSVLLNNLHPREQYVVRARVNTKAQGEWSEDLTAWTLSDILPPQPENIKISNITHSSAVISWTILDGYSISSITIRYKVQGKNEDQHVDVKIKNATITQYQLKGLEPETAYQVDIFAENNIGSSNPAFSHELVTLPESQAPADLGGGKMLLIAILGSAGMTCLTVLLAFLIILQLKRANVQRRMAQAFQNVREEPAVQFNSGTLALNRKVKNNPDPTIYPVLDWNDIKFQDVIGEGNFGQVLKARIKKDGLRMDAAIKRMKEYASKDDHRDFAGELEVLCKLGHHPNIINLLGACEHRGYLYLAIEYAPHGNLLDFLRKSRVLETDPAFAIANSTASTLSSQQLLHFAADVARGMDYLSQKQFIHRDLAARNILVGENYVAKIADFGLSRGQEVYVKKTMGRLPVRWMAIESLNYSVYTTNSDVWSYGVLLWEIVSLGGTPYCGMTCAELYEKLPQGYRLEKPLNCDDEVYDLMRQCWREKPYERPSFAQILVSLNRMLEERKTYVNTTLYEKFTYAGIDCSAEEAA

SMILES | IC50 (Lck) [µM] | IC50 (Zap-70) [µM] | IC50 (Itk) [µM] | IC50 (EGFR) [µM] | IC50 (Kdr) [µM] | IC50 (c-Met) [µM] | IC50 (AKT) [µM] | IC50 (IGFR-1) [µM] | IC50 (EPHB4) [µM] | IC50 (ErbB4) [µM] | IC50 (Tek) [µM]
COc1cc(Nc2ncnc(Nc3ccc(C)c([N+](=O)[O-])c3)n2)cc(OC)c1OC [Compound 934] | > 10.9 | > 10.9 | > 10.9 | 0.97 to 5.82 | 0.97 to 5.82 | > 10.9 | > 10.9 | < 0.97 | 0.97 to 5.82 | > 10.9 | –
COc1cc(Nc2ncnc(Nc3cccc(C(=O)O)c3)n2)cc(OC)c1OC [Compound 933] | 1.01 to 6.04 | > 11.3 | > 11.3 | < 1.01 | 1.01 to 6.04 | > 11.3 | > 11.3 | 1.01 to 6.04 | 6.04 to 8.81 | 1.01 to 6.04 | –
COc1cc(Nc2ncnc(Nc3ccc(O)cc3C)n2)cc(OC)c1OC [Compound 927] | 6.26 to 9.13 | > 11.7 | > 11.7 | 6.26 to 9.13 | 1.04 to 6.26 | > 11.7 | > 11.7 | > 11.7 | > 11.7 | – | > 11.7
COc1cc(Nc2ncnc(Nc3ccc(F)cc3)n2)cc(OC)c1OC [Compound 303] | 1.08 to 6.46 | > 12.1 | > 12.1 | 1.08 to 6.46 | 1.08 to 6.46 | > 12.1 | > 12.1 | 1.08 to 6.46 | 9.42 to 12.1 | – | 1.08 to 6.46
COc1cc(Nc2ncnc(-c3cc4ccccc4s3)n2)cc(OC)c1OC [Compound 218] | > 11.4 | > 11.4 | > 11.4 | > 11.4 | > 11.4 | > 11.4 | > 11.4 | > 11.4 | > 11.4 | – | > 11.4
COCCOc1ccc(Nc2ncnc(-c3ccccc3)n2)cc1 [Compound 155] | > 14 | > 14 | > 14 | > 14 | > 14 | > 14 | > 14 | > 14 | > 14 | – | > 14
COc1cc(Nc2ncnc(N3CCN(C)CC3)n2)cc(OC)c1OC [Compound 212] | > 12.5 | > 12.5 | > 12.5 | > 12.5 | > 12.5 | > 12.5 | > 12.5 | > 12.5 | > 12.5 | – | > 12.5
OCCCNc1cc(-c2ncnc(Nc3cccc(OC(F)(F)C(F)F)c3)n2)ccn1 [Compound 372] | > 10.3 | > 10.3 | > 10.3 | > 10.3 | > 10.3 | > 10.3 | > 10.3 | > 10.3 | > 10.3 | – | > 10.3
COc1ccc(Nc2ncnc(N(CC(=O)OC(C)(C)C)c3ccc(Cl)cc3)n2)cc1OC [Compound 973] | 5.09 to 7.42 | > 9.54 | > 9.54 | 0.848 to 5.09 | > 9.54 | > 9.54 | > 9.54 | > 9.54 | 5.09 to 7.42 | – | > 9.54
COc1ccc(Nc2ncnc(Nc3ccc(F)c(Cl)c3)n2)cc1OC [Compound 113] | > 12 | > 12 | > 12 | 1.06 to 6.39 | > 12 | > 12 | > 12 | < 1.06 | 6.39 to 9.31 | – | > 12
COc1cc(Nc2ncnc(-c3ccc(F)cc3)n2)cc(OC)c1OC [Compound 222] | > 12.6 | > 12.6 | > 12.6 | > 12.6 | 9.82 to 12.6 | > 12.6 | > 12.6 | > 12.6 | > 12.6 | – | > 12.6
O=c1[nH]c2ccccc2n1-c1ncnc(Nc2ccc(-c3cnco3)cc2)n1 [Compound 379] | > 12.1 | > 12.1 | > 12.1 | > 12.1 | 9.42 to 12.1 | > 12.1 | > 12.1 | > 12.1 | > 12.1 | – | > 12.1
COc1cc(Nc2ncnc(-c3ccsc3)n2)cc(OC)c1OC [Compound 226] | 10.2 to 13.1 | 10.2 to 13.1 | > 13.1 | > 13.1 | 6.97 to 10.2 | > 13.1 | > 13.1 | > 13.1 | > 13.1 | – | 10.2 to 13.1
COc1cc(Nc2ncnc(NN3CCOCC3)n2)cc(OC)c1OC [Compound 103] | > 12.4 | > 12.4 | > 12.4 | > 12.4 | > 12.4 | > 12.4 | 1.1 to 6.62 | 6.62 to 9.66 | 1.1 to 6.62 | – | > 12.4
COc1cc(Nc2ncnc(Nc3ccc(N(C)C(C)=O)cc3)n2)cc(OC)c1OC [Compound 81] | 0.942 to 5.65 | > 10.6 | > 10.6 | > 10.6 | 0.942 to 5.65 | > 10.6 | > 10.6 | > 10.6 | > 10.6 | – | > 10.6
